# Positions count from the first letter of the chain named. pIC50: −log10 of the molar value. “And” between values parts separate entries of the source, which are not always exact repeats. Identical values can stand only once. Like-named read-outs stand apart in the source and are kept apart here.
# What was measured:
# [1] = target: T1, Nedd4 (Homo sapiens, UniProt P46934); experiment: biochemical
# T1 sequence (P46934 1-900 isoform P46934-4): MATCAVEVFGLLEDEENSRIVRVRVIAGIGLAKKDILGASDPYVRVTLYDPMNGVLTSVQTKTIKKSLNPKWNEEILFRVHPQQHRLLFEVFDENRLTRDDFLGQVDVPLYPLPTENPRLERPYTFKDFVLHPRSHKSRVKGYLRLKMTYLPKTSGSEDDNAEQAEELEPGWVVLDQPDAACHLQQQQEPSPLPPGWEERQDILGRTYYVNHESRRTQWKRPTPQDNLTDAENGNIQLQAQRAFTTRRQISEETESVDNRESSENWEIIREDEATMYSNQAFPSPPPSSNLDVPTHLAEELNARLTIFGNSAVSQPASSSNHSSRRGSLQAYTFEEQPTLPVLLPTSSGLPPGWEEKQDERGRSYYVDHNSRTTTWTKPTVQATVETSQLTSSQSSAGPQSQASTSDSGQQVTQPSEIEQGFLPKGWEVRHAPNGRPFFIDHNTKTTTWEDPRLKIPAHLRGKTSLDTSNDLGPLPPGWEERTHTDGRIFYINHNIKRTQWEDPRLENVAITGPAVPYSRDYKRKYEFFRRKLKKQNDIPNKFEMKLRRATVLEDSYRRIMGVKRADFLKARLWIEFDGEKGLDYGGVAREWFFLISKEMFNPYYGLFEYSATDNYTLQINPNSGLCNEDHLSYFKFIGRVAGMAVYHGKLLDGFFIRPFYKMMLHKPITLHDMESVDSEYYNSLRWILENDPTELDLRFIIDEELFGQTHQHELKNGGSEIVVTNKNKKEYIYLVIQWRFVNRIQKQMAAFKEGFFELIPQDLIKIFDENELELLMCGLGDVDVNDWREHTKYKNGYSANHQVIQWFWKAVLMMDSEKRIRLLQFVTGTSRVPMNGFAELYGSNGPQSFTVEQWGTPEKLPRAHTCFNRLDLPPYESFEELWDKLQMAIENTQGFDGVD
# Experimental: (§1) All time-resolved fluorescence resonance energy transfer (TR-FRET) auto-ubiquitination assays were performed in a final volume of 10 µL in PerkinElmer 384-well flat bottom white OptiPlate™ polystyrene microplates (PerkinElmer Cat. No. 6007290). […] A low concentration of NP-40 detergent (0.00063% v/v) was chosen for the Nedd4 auto-ubiquitination assay since this concentration yielded optimal terbium emission at 485 nm after 340 nm excitation (Supplementary Fig. 2). […] Reaction mixes containing all assay components except ATP-MgCl2 were preincubated with either library compounds dissolved in 1% DMSO or DMSO alone at RT for up to 2 h. To initiate the auto-ubiquitination reaction, 2 mM ATP-MgCl2 was added and incubated at 37 °C for 60–90 min. TR-FRET signal was measured in a Synergy 4 microplate reader (BioTek) using a 340/30 nm excitation filter and measuring the emission ratio using 485/20 nm and 528/20 nm emission filters. Fluorescence measurement was performed over a 400 µs window following a 100 µs delay post-excitation (Fig. 1).
# (§2) All experiments were performed in triplicate (n = 3), and plotted values represent the average of three replicates with the standard deviation. TR-FRET signal refers to background values subtracted using control wells containing Tb-SA and Ub-FITC. Data were plotted using GraphPad 9.1.2 (GraphPad, La Jolla, CA) and fitted to a four-parameter sigmoidal dose–response curve. Where applicable, the dose–response was normalized and expressed as a percentage of auto-ubiquitination activity relative to the DMSO control.
# [2] = target: WWP1 (Homo sapiens, UniProt Q9H0M0); details: 200 µM
# Experimental: (§3) All time-resolved fluorescence resonance energy transfer (TR-FRET) auto-ubiquitination assays were performed in a final volume of 10 µL in PerkinElmer 384-well flat bottom white OptiPlate™ polystyrene microplates (PerkinElmer Cat. No. 6007290). […] Concentrations of Ub activating (E1) and conjugating (E2) enzymes and fluorophores were selected to provide sufficient TR-FRET signal intensity for compound screening without excessive reagent consumption (Supplementary Fig. 3). Reaction mixes containing all assay components except ATP-MgCl2 were preincubated with either library compounds dissolved in 1% DMSO or DMSO alone at RT for up to 2 h. To initiate the auto-ubiquitination reaction, 2 mM ATP-MgCl2 was added and incubated at 37 °C for 60–90 min. TR-FRET signal was measured in a Synergy 4 microplate reader (BioTek) using a 340/30 nm excitation filter and measuring the emission ratio using 485/20 nm and 528/20 nm emission filters. Fluorescence measurement was performed over a 400 µs window following a 100 µs delay post-excitation (Fig. 1). Similarly, TR-FRET assays were used to measure the auto-ubiquitination activity of two other Nedd4 family HECT E3 ligases (WWP1 and WWP2) using alternative optimized buffer and fluorophore concentrations to test Nedd4 inhibitor specificity (Supplementary Table 2).
# For selectivity assays, we used C-terminal His-tagged WWP1 and WWP2 bound to Tb-labelled
# anti-His-tag antibody and FITC-labelled ubiquitin.
# Tb-SA 50 nM AntiHis-Tb 16.5 nM AntiHis-Tb 10 nM
# NaCl 150 mM NaCl 0 mM NaCl 0 mM
# TCEP 0.1 mM TCEP 0.1 mM TCEP 0.1 mM
# DMSO 1 % DMSO 1 % DMSO 1 %
# MgCl2 2 mM MgCl2 2 mM MgCl2 2 mM
# ATP 2 mM ATP 2 mM ATP 2 mM
# [3] = target: T1, Nedd4
# Experimental: as §1, §2
# [4] = test system: Nedd4; set-up: method as in PMID 27979631; details: cited from earlier work
# [5] = target: T1, Nedd4; experiment: Western blotting for ubiquitination and biotinylated Nedd4; assay type: biochemical; details: 50 and 100 µM, 2 h at RT
# Experimental: The auto-ubiquitination reactions were initiated with the addition of 2 mM ATP-MgCl2. Another control reaction was performed without the addition of ATP-MgCl2 for comparison (negative control).
# [6] = target: T2, Nedd4 C627A (Homo sapiens, UniProt P46934, C1046A); experiment: TR-FRET auto-ubiquitination assay of Nedd4 mutant C627A; assay type: biochemical; details: 2 h at RT, read-out: retention of uninhibited C627A activity
# T2 construct: full length C182A, C627A, C867A, and C627A + C867A mutants; made in house; host or cells: E. coli BL21 (D3)-BirA
# T2 sequence (P46934 1-900 isoform P46934-4 C627A): T1 sequence (P46934 1-900 isoform P46934-4) with C627A
# Experimental: (§4) All time-resolved fluorescence resonance energy transfer (TR-FRET) auto-ubiquitination assays were performed in a final volume of 10 µL in PerkinElmer 384-well flat bottom white OptiPlate™ polystyrene microplates (PerkinElmer Cat. No. 6007290). […] A low concentration of NP-40 detergent (0.00063% v/v) was chosen for the Nedd4 auto-ubiquitination assay since this concentration yielded optimal terbium emission at 485 nm after 340 nm excitation (Supplementary Fig. 2). Concentrations of Ub activating (E1) and conjugating (E2) enzymes and fluorophores were selected to provide sufficient TR-FRET signal intensity for compound screening without excessive reagent consumption (Supplementary Fig. 3). Reaction mixes containing all assay components except ATP-MgCl2 were preincubated with either library compounds dissolved in 1% DMSO or DMSO alone at RT for up to 2 h. […] TR-FRET signal was measured in a Synergy 4 microplate reader (BioTek) using a 340/30 nm excitation filter and measuring the emission ratio using 485/20 nm and 528/20 nm emission filters. Fluorescence measurement was performed over a 400 µs window following a 100 µs delay post-excitation (Fig. 1).
# (§5) All assays were carried out in triplicate with the data representing the mean with standard deviation. […] Auto-ubiquitination reactions were allowed to proceed for 1 h at 37 °C and then read through the TR-FRET assay described in the methods.
# [7] = target: T3, Nedd4 C867A (Homo sapiens, UniProt P46934, C1286A); experiment: TR-FRET auto-ubiquitination assay of Nedd4 mutant C867A; assay type: biochemical; details: 200 µM, 2 h at RT
# T3 construct: full length C182A, C627A, C867A, and C627A + C867A mutants; made in house; host or cells: E. coli BL21 (D3)-BirA
# T3 sequence (P46934 1-900 isoform P46934-4 C867A): T1 sequence (P46934 1-900 isoform P46934-4) with C867A
# Experimental: as §4, §5
# [8] = target: T4, Nedd4 C627A + C867A (Homo sapiens, UniProt P46934, C1046A/C1286A); experiment: TR-FRET auto-ubiquitination assay of Nedd4 double mutant C627A + C867A; assay type: biochemical; details: 200 µM, 2 h at RT
# T4 construct: full length C182A, C627A, C867A, and C627A + C867A mutants; made in house; host or cells: E. coli BL21 (D3)-BirA
# T4 sequence (P46934 1-900 isoform P46934-4 C627A/C867A): T1 sequence (P46934 1-900 isoform P46934-4) with C627A, C867A
# Experimental: as §4, §5
# [9] = target: T1, Nedd4; experiment: LC–MS/MS covalent adduction and site identification; assay type: binding; set-up: 30 µg of N-terminal His-tagged and C-terminal biotinylated Nedd4 (residue 1–900); made in house; host or cells: E. coli BL21 (D3)-BirA
# Experimental: Samples were run on SDS-PAGE and stained with Coomassie Brilliant Blue R-250 (Thermo Fisher Scientific cat no. 20278). Gels were destained in water until the desired contrast was reached. The Nedd4 bands were cut and stored in 1% acetic acid at 4 °C until use. Samples were submitted to the SPARC Molecular Analysis Centre at the Hospital for Sick Children (Toronto, ON, CA) for LC–MS/MS analysis. Each gel band was cut into 3 pieces and digested with 0.8 µg pepsin, 0.6 µg trypsin and 0.6 µg chymotrypsin separately. The peptides obtained through the proteolytic digest were combined then lyophilized and resuspended in 0.1% formic acid. These samples were then subjected to MS/MS spectroscopy by an EASY-nLC 1200 nano-LC system + Thermo Scientific Orbitrap Fusion Lumos Tribrid mass spectrometer. MS data was analyzed using Scaffold PTM 4.0.1.
# [10] = target: WWP2 (Homo sapiens, UniProt O00308); details: 200 µM
# Experimental: as §3
# For selectivity assays, we used C-terminal His-tagged WWP1 and WWP2 bound to Tb-labelled […]
# [11] = 200 µM compound, 3 h incubation
# Sequence of WWP1 (Q9H0M0 349-922): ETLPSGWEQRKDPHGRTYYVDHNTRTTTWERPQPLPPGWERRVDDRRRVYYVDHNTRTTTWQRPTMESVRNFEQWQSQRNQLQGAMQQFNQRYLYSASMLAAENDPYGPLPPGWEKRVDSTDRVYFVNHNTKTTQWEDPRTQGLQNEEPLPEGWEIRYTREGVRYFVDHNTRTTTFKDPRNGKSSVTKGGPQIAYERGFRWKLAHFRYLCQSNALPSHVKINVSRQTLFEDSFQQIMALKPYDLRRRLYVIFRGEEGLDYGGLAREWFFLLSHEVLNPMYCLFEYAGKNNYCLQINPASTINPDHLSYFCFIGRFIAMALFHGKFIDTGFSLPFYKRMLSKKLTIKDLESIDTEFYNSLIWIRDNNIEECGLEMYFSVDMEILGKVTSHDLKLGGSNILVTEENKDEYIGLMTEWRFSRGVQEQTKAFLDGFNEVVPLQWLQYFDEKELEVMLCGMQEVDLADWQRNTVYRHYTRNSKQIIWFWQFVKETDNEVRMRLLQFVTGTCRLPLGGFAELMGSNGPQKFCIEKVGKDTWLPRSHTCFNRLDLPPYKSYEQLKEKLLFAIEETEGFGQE
# Sequence of WWP2 (O00308 whole entry): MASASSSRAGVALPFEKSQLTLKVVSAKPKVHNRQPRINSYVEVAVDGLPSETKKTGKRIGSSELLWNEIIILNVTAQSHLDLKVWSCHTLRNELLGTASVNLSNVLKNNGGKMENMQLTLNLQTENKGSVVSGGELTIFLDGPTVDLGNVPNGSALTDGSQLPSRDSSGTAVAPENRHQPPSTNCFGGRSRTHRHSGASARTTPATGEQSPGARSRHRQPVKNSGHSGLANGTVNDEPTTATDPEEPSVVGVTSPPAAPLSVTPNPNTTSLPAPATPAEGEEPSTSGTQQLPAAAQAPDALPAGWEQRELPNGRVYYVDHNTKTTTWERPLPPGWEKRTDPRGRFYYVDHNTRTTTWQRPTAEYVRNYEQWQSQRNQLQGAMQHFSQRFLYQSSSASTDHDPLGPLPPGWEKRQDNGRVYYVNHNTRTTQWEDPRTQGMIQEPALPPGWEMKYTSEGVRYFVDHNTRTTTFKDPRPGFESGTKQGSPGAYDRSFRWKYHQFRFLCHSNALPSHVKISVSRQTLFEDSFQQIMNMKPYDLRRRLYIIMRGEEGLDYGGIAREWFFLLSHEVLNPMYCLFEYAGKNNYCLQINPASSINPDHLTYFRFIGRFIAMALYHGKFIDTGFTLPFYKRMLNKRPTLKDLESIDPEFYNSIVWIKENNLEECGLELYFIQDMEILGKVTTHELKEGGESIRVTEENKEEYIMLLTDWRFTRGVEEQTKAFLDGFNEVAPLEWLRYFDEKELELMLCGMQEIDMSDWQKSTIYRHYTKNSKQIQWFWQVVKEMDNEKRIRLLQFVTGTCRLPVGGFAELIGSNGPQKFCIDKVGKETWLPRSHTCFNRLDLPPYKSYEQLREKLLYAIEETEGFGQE
smiles,measurement,setting,value
Cn1cc(C(=O)CCl)c2ccccc21 [Compound 6],pIC50,[1],3.76 and 3.77
Cc1cc(C(=O)CCl)c(C)[nH]1 [Compound 23],inhibition,[2],~25%
same,pIC50,[1],> 4.22 and 4.25
Cc1cc(C(=O)CCl)c(C)n1-c1ccccc1 [Compound 20],pIC50,[1],3.61 and 3.62
"OCc1c[nH]c2ccccc12 [Compound 5, Indole-3-carbinol, reference compound]",inhibition,[3]; 500 µM,33%
same,pIC50,[4]; previously reported,3.55
Cn1ccc(C(=O)CCl)c1 [Compound 24],pIC50,[1],3.94
O=C(CCl)c1ccccn1 [Compound 81],effect on Nedd4 auto-ubiquitination by Western blot,[5],complete loss of auto-ubiquitination
same,activity at 200 µM,[6],30%
same,change of C867A mutant activity on incubation with compound,[7],No significant differences
same,change of C627A + C867A mutant activity on incubation with compound,[8],No significant differences
same,inhibition,[3]; 200 µM,> 50%
same,pIC50,[1],4.51 and > 4.22
same,cysteine adduction sites confirmed by MS/MS,"[9]; 200 µM compound, 3 h at RT",all three of the confirmed cysteine residues
same,"Occurrence Among Observed Peptides, Cysteine Site C182",[9]; [11],25/67
same,"Occurrence Among Observed Peptides, Cysteine Site C627",[9]; [11],8/12
same,"Occurrence Among Observed Peptides, Cysteine Site C867",[9]; [11],21/50
same,Localization Probability of Compound 81 modification on cysteine (Cys627 peptide),"[9]; sheet ""81 Mod Cys627"", per peptide spectrum match, residues 639-657, C11 or C9 of the peptide","100% and 72%, 0%, 100% and 100%, 100%"
O=C(CCl)c1c[nH]c2ccccc12 [Compound 25],inhibition,[2],~25%
Cc1cc(C(=O)C(C)Cl)c(C)n1Cc1ccco1 (centres unmarked) [Compound 36],pIC50,[1],3.95 and 3.96
"OCc1cn(Cc2ccccc2)c2ccccc12 [Compound 1-benzyl-I3C, 1-benzyl-I3C]",pIC50,[4]; measured through an ELISA-based assay of Nedd4 activity,4.91
Cc1cc(C(=O)CCl)c(C)n1CCC(C)C [Compound 29],pIC50,[1],4.06 and 4.05
COC(=O)c1ccc2[nH]cc(C(=O)CCl)c2c1 [Compound 11],pIC50,[1],4.01 and 4.00
O=C(CCl)c1c[nH]c2ccncc12 [Compound 13],inhibition,[2],47% and 72%
same,inhibition,[10],58% and 73%
COCCn1c(C)cc(C(=O)CCl)c1C [Compound 21],pIC50,[1],3.84 and 3.85

# — paper PMC10520017, “Discovery of Nedd4 auto-ubiquitination inhibitors” (Scientific Reports, 2023)
